Results taken from publication PMC7116876, “Mechanistic Insights into Regulation of the ALC1 Remodeler by the Nucleosome Acidic Patch” (Cell reports, 2020).

Key:
[1] = test system: APM/APM nucleosomes (H2A E61A, E64A, D90A, E92A); experiment: Fluorescence anisotropy binding assay, APM/APM nucleosomes; design: species or system Xenopus laevis histones; conditions: 10 nM TAMRA-labeled peptide, 15 mM HEPES pH 7.5, 30°C, one representative curve of two independent experiments
Excerpt: (§1) The DNA constructs used in the nucleosome assembly for single-molecule and ensemble remodeling studies comprised the Widom 601 nucleosome positioning sequence ([Lowary and Widom, 1998]) as well as either 3 bp or 12 bp of linker DNA on one side and 78 bp on the other side (for the single-molecule remodeling construct) or 63 bp of linker DNA on one side and no linker DNA on the other side (for the ensemble remodeling construct). All constructs were 5’-labeled with Cy5 on the short linker end. The constructs for single-molecule experiments additionally featured a biotin on the long linker end. […] The DNA constructs for the assembly of nucleosomes used in fluorescence anisotropy experiments and ATPase assays comprised the Widom 601 positioning sequence without additional linker DNA (for the fluorescence anisotropy construct) or 63 bp of linker DNA on one side and no linker DNA on the other side (for the ATPase assay construct). […]
For binding studies, we used nucleosomes without linker DNA (WT/WT or APM/APM) as well as the following synthetic peptides (as detailed above): LANA peptide-TAMRA, ALC1^RLS peptide-TAMRA, and ALC1^RLS peptide. Fluorescence anisotropy measurements were carried out at 30°C using a CLARIOstar microplate reader (BMG Labtech). Binding curves were recorded in black low-volume 384-well assay plates (Corning). […]

[2] = molecular target: T1, WT/WT nucleosomes (acidic patch) (Xenopus laevis, UniProt P02281+P06897+P62799); experiment: Competition fluorescence anisotropy with LANA-TAMRA pre-bound to WT/WT nucleosomes; assay type: binding, Xenopus laevis histones; conditions: LANA-TAMRA 10 nM, WT/WT nucleosomes 100 nM, varying unlabeled ALC1^RLS peptide, 30°C; n = 3 independent experiments
T1 construct: made in house; host or cells: E. coli BL21 (DE3) pLysS
Method: For binding studies, we used nucleosomes without linker DNA (WT/WT or APM/APM) as well as the following synthetic peptides (as detailed above): LANA peptide-TAMRA, ALC1^RLS peptide-TAMRA, and ALC1^RLS peptide. Fluorescence anisotropy measurements were carried out at 30°C using a CLARIOstar microplate reader (BMG Labtech). Binding curves were recorded in black low-volume 384-well assay plates (Corning). Individual wells contained 10 nM peptide and the indicated concentration of nucleosomes in 15 mM HEPES pH 7.5,1 mM EDTA, 5% glycerol, and 1 mM DTT. Dissociation constants were determined by fitting the fluorescence anisotropy data to the solution of a quadratic equation derived from the binding isotherm, which took into account depletion of peptide: r=αA+KD+B−A+KD+B^2−4AB , where r is the fluorescence anisotropy, A represents the total concentration of peptide, a is a scaling factor, KD is the dissociation constant, and B is the total concentration of titrated ligand. […]
For fluorescence anisotropy binding experiments, the reported values represent the mean ± SEM from 3 independent experiments. […] For ensemble nucleosome remodeling time courses, each experimental condition was recorded in 3 independent experiments, and representative remodeling time courses are shown. […]

[3] = test system: ALC1-catalyzed remodeling of WT/WT nucleosomes; experiment: Ensemble FRET nucleosome remodeling, WT/WT nucleosomes; assay type: biochemical, Homo sapiens ALC1; Xenopus laevis histones; conditions: WT/WT nucleosomes 10 nM preincubated with 80 μM LANA peptide 5 min room temperature; 80 nM ALC1^fl R860W (Fig 1C) or 80 nM ALC1^fl activated with PARP1/NAD+ (Fig S1C)
Excerpt: cDNAs for ALC1 and PARP1 were of Homo sapiens origin. Histone proteins (recombinantly expressed in E. coli) were of Xenopus laevis origin. Cell lines as well as growth conditions are described in the Method Details.
Oligonucleotides used in this study were ordered from IDT (see Table S3). The ALC1^fl (16-879) construct contains the human ALC1 sequence and a 6xHis-tag, as previously published ([Lehmann et al., 2017]). All point mutations were generated by PCR-based site-directed mutagenesis. The plasmid for human PARP1 (1-1014) with an N-terminal 6xHis-tag was a kind gift from John M. Pascal ([Langelier et al., 2017]).
as §1, with “construct).” for “construct). All constructs were 5’-labeled with Cy5 on the short linker end. The constructs for single-molecule experiments additionally featured a biotin on the long linker end.”

CC[C@H](C)[C@H](NC(=O)[C@H](CC(C)C)NC(=O)[C@@H](NC(=O)[C@H](CO)NC(=O)CNC(=O)[C@H](CCCCN)NC(=O)[C@H](CC(N)=O)NC(=O)[C@H](CCCNC(=N)N)NC(=O)[C@H](CC(C)C)NC(=O)[C@H](CO)NC(=O)[C@H](CCCNC(=N)N)NC(=O)CNC(=O)[C@H](CCC(=O)O)NC(=O)[C@H](CCC(N)=O)NC(=O)[C@H](CO)NC(=O)[C@H](C)NC(=O)[C@H](CCCCN)NC(=O)[C@@H](N)CCC(=O)O)C(C)C)C(=O)N1CCC[C@H]1C(=O)NCC(=O)N[C@@H](CC(C)C)C(=O)N[C@@H](CCCCNC(=O)c1ccc2c(c1)C(=O)OC21c2ccc(N(C)C)cc2Oc2cc(N(C)C)ccc21)C(=O)O [ALC1^RLS-TAMRA]
affinity for nucleosomes with AP mutations on both H2A/H2B dimers [1]: substantially reduced affinity

EKASQEGRSLRNKGSVLIPGL [ALC1^RLS peptide, N-terminal regulatory linker segment (residues 604–624) of ALC1, unlabeled]
effect on fluorescence anisotropy of pre-formed LANA-TAMRA peptide-nucleosome complex [2]: caused a decrease in its fluorescence anisotropy in a dose-dependent manner

MAPPGMRLRSGRSTGAPLTRGS [LANA peptide, peptide derived from the latency-associated nuclear antigen (LANA) of Kaposi's sarcoma-associated herpesvirus, reference compound]
effect on ALC1-catalyzed remodeling [3]: completely abrogated ALC1-catalyzed remodeling
